{"source": "paper PMC4929566", "about": "“The metabolome of [2-^14C](−)-epicatechin in humans: implications for the assessment of efficacy, safety, and mechanisms of action of polyphenolic bioactives” (Scientific Reports, 2016)", "key": {"[1]": {"experiment": "Metabolite profiling and quantification in urine (HPLC-MS2 with on-line radioactivity detector)", "assay_type": "in vivo, humans", "conditions": "human", "protocol": "(§1) The study was a single-center, open-label, and non-randomized study with two distinct elements: a run-in phase to establish a more defined dietary background of dietary flavanols and procyanidins and the subsequent ^14C-EC ADME study (Fig. 1B). Participants (n = 12) were enrolled in the run-in phase (day –17 to day –4) and asked to supplement their daily diet for 14 days with a commercially available flavanol-containing cocoa-based drink (250 mg cocoa flavanols; 40 mg of EC). This was followed by a 4-day period (day –4 to 0) of a low-flavanol diet. One day (study day -1) prior to the initialization of the ^14C-EC ADME study, all eligible participants were accommodated under controlled conditions at a metabolic research facility (Covance Clinical Pharmacology Inc., Wisconsin) until completion of the study. Based on the compliance of the first part of the study, 8 participants were selected to participate in the ^14C-EC ADME study. During the ^14C-EC ADME study (Fig. 1B.), volunteers received a low-flavanol, standardized high-fiber diet, and were encouraged to maintain an adequate level of hydration (water ad libitum). Volunteers were asked to fast for 8 h before the initiation of the study and for at least 4 h after the intake of the ^14C-EC test drink (water ad libitum). Venous blood samples were taken using Vacutainer collection tubes, containing potassium EDTA at 0 h (just prior to ^14C-EC ingestion), and at 0.25, 0.5, 1, 1.5, 2, 2.5, 3, 4, 6, 8, 10, 12, 16, 24, 36, and 48 h after test drink consumption. Plasma was obtained by whole blood centrifugation at 2000 × g for 15 min at 5 °C, separated into aliquots and stored at −80 °C until analysis. All urine and feces from the time just prior to the consumption of the test drink were collected at different time intervals for radioactivity and metabolite profiling. Clinical parameters and laboratory evaluations of participants were assessed at screening, on study day –1, and after completing the study, as detailed in Supplementary Methods.\n(§2) Samples were processed as described previously[18] and analyzed by HPLC-MS^2 in conjunction with an on-line HPLC-radioactivity monitor as described in SI Materials and Methods. Identification of metabolites involved comparing the retention time with authentic standards and MS^2 fragmentation patterns (Supplementary Methods). Quantification of metabolites in urine was based on HPLC radioactivity peak area (limit of quantification: 10^3 dpm). Due to the low levels of radioactivity, quantification in plasma was based on targeted HPLC-MS^2 using standard curves obtained with authentic standards (Supplementary Methods).\nHPLC-MS identifications of radiolabeled [2-14C](−)-epicatechin metabolites in urine Urine was analyzed with radioactivity and mass spectrometry (MS) detection using a 250 mm x 4.6 mm i.d. 5 µm Luna Phenyl-Hexyl column (Phenomenex, Macclesfield, UK) […]\nformic acid. Metabolite identification was performed by 1) co-chromatography of metabolites with reference compounds and a comparison of their MS fragmentation patterns 2, 2) by comparing m/z fragmentation patterns with earlier in-house observed […]\npatterns to databases of metabolites reported in earlier polyphenol feeding studies5-7.\nSupplementary Table S2, which also provides information on the MSI MI (Metabolite Standards Initiative – Metabolites Identification) level, a confidence level for identification where level 1 stands for fully elucidated (i.e., by comparison with a standard) and level 2 for a well characterized, but not yet fully structurally elucidated 8"}, "[2]": {"experiment": "SREM profile in plasma after intragastric 14C-EC, rat", "assay_type": "in vivo, Sprague-Dawley rats", "conditions": "30 min after 2 mg/kg BW intragastric 14C-EC", "protocol": "To assess the profile of SREMs in rodents, Sprague-Dawley rats (male, 9–10 week old, 270 ± 16 g of BW) and C57BL/6 mice (20 ± 1 g) were administered by gavage 2 mg/kg BW of ^14C-EC (corresponding to ≈10.6 μCi/rat and 6.7 μCi/mouse). Blood samples were collected 30 min after administration. Plasma was obtained by centrifugation at 4 °C for 15 min at 1800xg, separated in aliquots and analyzed by HPLC as described previously[18] with an on-line radioactivity detector (Radiomatic 610TR Flow System Analyzer, PerkinElmer, Inc., Waltham, Mass)."}, "[3]": {"experiment": "Metabolite profiling and pharmacokinetics in plasma (targeted HPLC-MS2)", "assay_type": "in vivo, humans", "conditions": "human, oral 60 mg 14C-EC", "protocol": "as §1, §2\nData are expressed as mean values ± standard error, or as otherwise specified. Pharmacokinetic parameters were calculated using non-compartmental analysis with WinNonlin (Pharsight Corporation, Version 5.2).\n5-20% acetonitrile in 0.1 % formic acid. Supplementary Table S2 provides details of HPLC retention times and the m/z values that were monitored.\nSupplementary Table S2. Detection of (−)-epicatechin metabolites. HPLC retention times and selected reaction monitoring ions used for the HPLC-MS analysis of (−)-epicatechin metabolites in plasma. […]\nStructurally related (-)-epicatechin metabolites in humans: assessment using de novo chemically synthesized authentic standards. Free Radic Biol Med 52, 1403- […]\n3 Borges, G. et al. Bioavailability of multiple components following acute ingestion of a polyphenol-rich juice drink. Mol Nutr Food Res 54 Suppl 2, S268-277, […]\n4 Stalmach, A. et al. Absorption, metabolism, and excretion of green tea flavan-3-ols in humans with an ileostomy. Mol Nutr Food Res 54, 323-334,"}, "[4]": {"experiment": "Total [2-14C](−)-epicatechin-derived radioactivity in whole blood and plasma after oral intake", "assay_type": "in vivo, humans", "conditions": "human", "protocol": "as §1\nThe 50-mL drink consisted of an aqueous solution of ^14C-EC (specific activity 14.5 μCi μmol^−1) and delivered 60 mg (207 μmol) of EC and 300 μCi (660 × 10^6 dpm) of radioactivity. The drink was prepared one day before consumption to verify correctness of composition and stability. Volunteers received the ^14C-EC test drink (50 mL), followed by 3 × 50 mL of water that was used to rinse the test drink container, and 40 mL of water. The radioactivity remaining in the test drink containers was measured, and the residual radioactivity recovered from each container was subtracted from the amount administered to the corresponding volunteer.\nRadioactivity in aliquots of plasma and urine was measured by liquid scintillation counting. Blood and feces were dried and oxidized by combustion using a 307 Sample Oxidizer (Packard Instrument Company, Meriden, NH) before being analyzed by liquid scintillation counting."}, "[5]": {"conditions": "all volunteers, post-consumption"}}, "note": "Where “and” joins values, the source holds several entries; their conditions need not be identical. Equal entries are not always repeated.", "data": [{"smiles": "Oc1cc(O)c2c(c1)O[C@H](c1ccc(O)c(O)c1)[C@H](O)C2", "note": "[^14C-EC, [2-^14C](−)-epicatechin]", "values": [{"measurement": "Ingested 14C-EC absorbed via the colon / lower intestine", "setting": "[1]; from urinary RFM excretion", "result": "≈ 70% and 70%"}, {"measurement": "Ingested 14C-EC absorbed from the small intestine", "setting": "[1]; from urinary SREM excretion", "result": 20, "unit": "%"}, {"measurement": "Detection in plasma", "setting": "[2]", "result": "No unmetabolized EC and sulfated SREMs were detected"}, {"measurement": "Levels of unmetabolized EC in plasma and urine", "setting": "[3]", "result": "below the limits of detection"}, {"measurement": "Association of whole blood radioactivity with plasma vs cellular components", "setting": "[4]", "result": "associated, almost exclusively, with plasma"}, {"measurement": "Time by which radioactivity in plasma fell below the limit of quantitation", "setting": "[4]; [5]", "result": "≤ 72", "unit": "h"}, {"measurement": "Time by which radioactivity in whole blood fell below the limit of quantitation", "setting": "[4]; [5]", "result": "≤ 36", "unit": "h"}, {"measurement": "Time after consumption at which radioactivity was detected in the circulation", "setting": "[4]; oral 60 mg 14C-EC", "result": 15, "unit": "min"}, {"measurement": "Total radioactivity in the circulatory system at Cmax, of the amount of 14C-EC ingested", "setting": "[4]; calculated from whole blood concentration and blood volume", "result": "< 2", "unit": "%"}]}]}
